# Test results reported in patent US20220249637A1, “COMBINATION THERAPY OF A CELL-MEDIATED CYTOTOXIC THERAPY AND AN INHIBITOR OF A PROSURVIVAL BCL2 FAMILY PROTEIN” (Juno Therapeutics, Inc., priority 2019, published 2022).
# Key:
# CD3+ CAR T cells = assay: Delayed addition of venetoclax to RL / CAR T co-culture, CAR T cell number; format: cell-based; conditions: 6 days
# Method: RL target cells were co-cultured with CD19-targeting CAR T cells, generated substantially as described in Example 1, for 6 days in the absence or presence of the exemplary BCL2 inhibitor venetoclax (0.01 μM, 0.1 μM, or 1.0 μM). Venetoclax was added concurrently with co-culture or 24, 48, or 72 hours after the start of co-culture. As a control, RL target cells were cultured in the presence of venetoclax, but without CAR T cells.
# After 6 days of co-culture, the number of CD3+ CAR T cells and target cells was assessed.
# human plasma proteins = conditions: cited from earlier work
# RL spheroids [1] = assay: RL spheroid 3D tumor model, co-culture for 9 days; format: cell-based
# Method: The resistance of the RL cell line to CD19-directed CAR T cells was further assessed in a 3D tumor model. An anti-CD19 CAR-expressing T cell composition was generated from a human adult donor, substantially as described in Example 1. RL tumor cells engineered to express NLR were allowed to form spheroids for 72 hours, then co-cultured for 9 days with the anti-CD19 CAR T cells at an E:T ratio of 1:1. A subtherapeutic concentration of the exemplary BCL2 inhibitor venetoclax (0.1 μM) was added at the beginning of co-culture, and tumor volume was measured over time (FIG. 5B).
# In a related experiment, spheroids were generated from CD19-expressing RL cells as described, and co-cultured for 9 days with anti-CD19 CAR T cells and increasing concentrations of venetoclax (0.01 μM, 0.1 μM, or 1.0 μM), or with only corresponding concentrations of venetoclax.
# anti-CD19 CAR T cells = assay: Caspase 3 expression and expansion of CAR T cells incubated with anti-ID beads and venetoclax; format: cell-based; conditions: 0.01, 0.1, 1 or 10 μM, 48 hours post-stimulation
# Method: Anti-CD19 CAR-expressing T cell compositions from healthy donors were incubated with anti-ID antibody-coated beads at 37° C. in the presence of increasing concentrations of venetoclax (0.01 μM, 0.1 μM, 1 μM, or 10 μM) for 48 hours. As a control, CART cells were incubated under the same conditions, but without venetoclax. Caspase 3 expression, viability, and expansion kinetics of the CAR T cells were subsequently assessed.
# Granta-519 = assay: NucLight Red target cell killing by live cell imaging; format: cell-based
# Method: Anti-CD19 CAR-expressing T cell compositions were generated as described in Example 1 and were cultured with a CD19-expressing lymphoma target cell lines, either SUDHL6, WSU-DLCL2, or Granta-519 at an E:T ratio of 2.5:1. The co-cultures were carried out in the presence of 20 nM or 200 nM of the exemplary BCL2 inhibitor, venetoclax. As controls, target tumor cell lines were incubated only in the presence of the inhibitor or the anti-CD19 CAR T cells. Target cells were labeled with NucLight Red (NLR) to permit tracking of target cells by microscopy and target cell killing was monitored by the loss of fluorescent signal over time, substantially as described in Example 1.
# In a further experiment, anti-CD19 CAR-expressing T cell compositions, generated as described above, were cultured with the Granta-519 CD19-expressing lymphoma target cell line. Granta-519 cells were engineered with a lentiviral reagent to express NucLight Red (NLR) to permit tracking of target cells by microscopy. […] The anti-CD19 CAR T cells were provided in the co-cultures at the suboptimal dose, and the co-cultures were carried out in the presence of 0, 0.01, 0.1, or 1 μM of the exemplary BCL2 inhibitor venetoclax. For comparison, target tumor cell lines were incubated only in the presence of 0, 0.01, 0.1, or 1 μM of the inhibitor. Red target cell counts were enumerated by live cell imaging and tracked over time.
# CD3+CAR+ T cells = assay: Co-culture of tumor cells and CAR T cells, venetoclax added at initiation or 24, 48 or 72 hours later (Example 9): CAR T cell number; format: cell-based
# Method: FIGS. 14A and 14B show the number of CD3+CAR+ T cells and RL target cells, respectively, following a 6-day co-culture. Various concentrations of an exemplary BCL2 inhibitor were provided in the co-culture at its initiation, or 24, 48, or 72 hours after the initiation of co-culture.
# Thus, in some cases, the cytotoic effects of a BCL2 inhibitor, e.g. venetoclax, and a T cell therapy (e.g. CAR T cells) may be synergistic to result in cell death of cells otherwise resistant to treatment with the T cell therapy alone. In some cases, administration of the inhibitor, e.g. venetoclax, may sensitize otherwise resistant cancer cells to CAR T cell-mediated killing when it is administered within or at about 7 days after administration of the cell therapy.
# RL spheroids [2] = assay: RL spheroids co-cultured with chronically stimulated anti-CD19 CAR T cells; format: cell-based; conditions: 8 days
# Method: Anti-CD19 CAR-expressing T cells, generated from healthy donors as described above, were chronically stimulated under conditions to exhaust T cell activity by incubation for 8 days with beads coated in anti-idiotypic (anti-ID) antibody directed against the CAR. After the 8 days of chronic stimulation, the anti-CD19 CAR-expressing T cells were harvested and subsequently co-cultured with RL cells engineered to express NLR for 8 days at an E:T ratio of 1:1. As a control, RL cells were cultured in the absence of anti-CD19 CAR T cells. Subtherapeutic concentrations of the exemplary BCL2 inhibitor venetoclax (0.01 μM or 0.1 μM) were added to the cultures, and the number of cells was assessed over time (FIG. 6A).
# In another experiment, spheroids were generated from CD19-expressing RL cells as previously described, and co-cultured for 8 days with anti-CD19 CAR T cells at an E:T ratio of 1:1 and increasing concentrations of venetoclax (0.01 μM, 0.1 μM, or 1.0 μM), or with only corresponding concentrations of venetoclax. As before, the anti-CD19 CAR T cells were chronically stimulated with anti-ID antibody-coated beads prior to co-culture with the RL spheroids. […] Overall, the size of the RL spheroids cultured with both anti-CD19 CAR T cells and venetoclax decreased more, and with lower concentrations of venetoclax, compared to that of RL spheroids cultured with just venetoclax.
compound,measurement,setting,value
CC1(C)CCC(CN2CCN(c3ccc(C(=O)NS(=O)(=O)c4ccc(NCC5CCOCC5)c([N+](=O)[O-])c4)c(Oc4cnc5[nH]ccc5c4)c3)CC2)=C(c2ccc(Cl)cc2)C1 [venetoclax],number of CD3+ CAR T cells,"CD3+ CAR T cells; 0.01 μM, all time points",not observed to reduce CD3+ CAR T cell number
same,number of CD3+ CAR T cells,CD3+ CAR T cells; 0.1 μM or 1.0 μM added concurrently or 24 hours later,reduced
same,number of CD3+ CAR T cells,"CD3+ CAR T cells; added 48 or 72 hours following co-culture, any concentration",a reduction in CD3+ CAR T cells was not observed
same,plasma protein binding,human plasma proteins,can bind human plasma proteins
same,apoptosis of tumor cells,RL spheroids [1]; combination of venetoclax and anti-CD19 CAR T cells (data not shown),induce apoptosis of tumor cells
same,tumor size,"RL spheroids [1]; day 9, venetoclax 0.01, 0.1 or 1.0 μM",larger concentrations of venetoclax resulted in larger decreases in tumor size
same,size of RL spheroids,"RL spheroids [1]; day 9, with anti-CD19 CAR T cells, venetoclax 0.01, 0.1 or 1.0 μM, compared to venetoclax only",decreased substantially more
same,tumor volume,"RL spheroids [1]; with anti-CD19 CAR T cells E:T 1:1, 0.1 μM venetoclax, 9 days",resulted in decreased tumor volume
same,percentage of CAR+ T cells expressing caspase 3,anti-CD19 CAR T cells,larger percentages of CAR+ T cells expressing caspase 3
same,CD19-directed CAR T cell killing,"Granta-519; co-culture with anti-CD19 CAR T cells E:T 2.5:1, 20 or 200 nM venetoclax",enhanced
same,target cell number,"Granta-519; venetoclax alone, 0.01 μM",did not substantially impact target cell number
same,tumor cell killing,"Granta-519; venetoclax alone, 20 nM or 200 nM",did not substantially impact tumor cell killing
same,target cell number,"Granta-519; venetoclax alone, 0.1 μM and 1.0 μM",modest effect on target cell number
same,target cell number,"Granta-519; with anti-CD19 CAR T cells E:T 1:1, 0.01 μM venetoclax, compared to 0.01 μM inhibitor only",demonstrated a decrease in the number of target cells
same,target cell number / CAR T cell killing,"Granta-519; with anti-CD19 CAR T cells E:T 1:1, 0.1 μM and 1.0 μM venetoclax",even greater CD19-directed CAR T cell killing
same,deleterious effects on CAR T cells,"CD3+CAR+ T cells; administered when activation-induced cell death of CAR T cells has peaked (e.g. 2-7 days after CAR T cells), Example 9",deleterious effects on CAR T cells not observed
same,deleterious effects on the CAR T cells,CD3+CAR+ T cells; therapeutic dose administered 48 or 72 hours after initiation of co-culture,without deleterious effects on the CAR T cells being observed
same,CAR-T cell numbers and activity,CD3+CAR+ T cells; therapeutic dose given concurrently or at 24 hours after initiation of co-culture,reduced CAR-T cell numbers and activity
same,tumor size,"RL spheroids [2]; venetoclax 0.01, 0.1 or 1.0 μM in the absence of CAR T cells",decreases in tumor size were only observed with 1 μM venetoclax
same,tumor size,"RL spheroids [2]; with chronically stimulated CAR T cells E:T 1:1, venetoclax 0.01, 0.1 or 1.0 μM",greater decreases in tumor size were seen with increasing concentrations of venetoclax
